Experiment [1] has as its system T. b. brucei TREU 667. Description: CNS model, T. b. brucei TREU 667 infection in mice (Table 4). Type of experiment: in vivo, Trypanosoma brucei brucei (in Swiss-Webster mice). The settings on record: control: Berenil 40 mg/kg on day 21. The text has this:
(§1) T. b. brucei EATRO 110 isolate was maintained as described (Bacchi, C. J., H. C. Nathan, S. H. Hutner, P. P. McCann and A. Sjoerdsma; Polyamine metabolism: a potential chemotherapeutic target in trypanosomes. Science 210: 332-334, 1980). It produces an acute, rapidly fatal parasitemia which is lethal to mice 3-5 days after inoculation. Two T. B. brucei strains, TREU 667 and LUMP 1001 developed by Jennings and coworkers (Jennings, F. W., D. D. Whitelaw and G. M. Urquhart; The relationship between duration of infection with Trypanosoma brucei in mice and the efficacy of chemotherapy. Parasitology 75: 143-153, 1977/Jennings, F. W. and G. D. Gray; Relapsed parasitemia following chemotherapy of chronic T. brucei infections in mice and its relation to cerebral trypanosomes; Contr. Microbiol. Immunol. 7 147-154, 1983) were used as CNS models. Both produce infections which are refractory to Berenil® (diminazene aceturate) and develop within 21 days after inoculation. They are not usually fatal until >40 days after inoculation. LUMP 1001 causes a more virulent CNS infection than TREU 667, and is regarded as more difficult to cure (Jennings, F. W. and G. D. Gray. Relapsed parasitemia following chemotherapy of chronic T. brucei infections in mice and its relation to cerebral trypanosomes. Contr. Microbiol. Immunol. 7 147-154, 1983).
The models for […] nervous system infections used TREU 667 and LUMP 1001 strains which were stored frozen and passaged once in rats before infection of mice. Maintenance and use of these screens were as described (Clarkson, A. B. Jr., C. J. Bacchi, G. H. Mellon, H. C. Nathan, P. P. McCann and A. Sjoerdsma. Efficacy of DFMO+blemoycin in a mouse model of central nervous system African trypanosomiasis. Proc. Natl. Acad. Sci. USA. 80: 5729-5733, 1983/Clarkson, A. B. Jr., E. J. Biene, C. J. Bacchi, P. P. McCann, S. H. Hutner and A. Sjoerdsma. New drug combination for experimental late stage African trypanosomiasis: DFMO with suramin. Am. J. Trop. Med. Hyg. 33: 1073-1077, 1984/Dube, D. K., G. Mpimbaza, A. C. Allison, E. Lederer and L. Rovis. Antitrypanosomal activity of sinefungin, Am. J. Trop. Med. Hyg. 32: 31-33, 1983/Fish, W. R., J. J. Marr, R. L. Berens, D. L. Looker, D. J. Nelson, S. LaFon and A. E. Balber. Inosine analogs as chemotherapeutic agents for African trypanosomes: metabolism in trypanosomes and efficacy in tissue culture. Anti-microb. Ag. Chemother. 27: 33-36, 1985/Clazer, R. I., and L. S. Lloyd. Effects of 8-azaadenosine and formycin on cell lethality and the synthesis and methylation of nucleic acids in human colon carcinoma cells in culture. Biochem. Pharmacol. 31: 3207-3214, 1982/Bacchi, C. J., H. C. Nathan, A. B. Clarkson, Jr., E. J. Bienen, A. J. Bitonti, P. P. McCann and A. Sjoerdsma. Activity of the ornithine decarboxylase inhibitors DL-α-difluoromethylornithine and monofluormethyldehydroornithine methylester alone and in combination with suramin against Trypanosoma brucei brucei central nervous system models, Am. J. Trop. Med. Hyg. (in press)). Briefly, groups of 100-120 mice were infected and the infections allowed to develop until day 21, when the animals were separated into groups of 10 and therapy commenced. Controls were treated with Berenil (40 mg/kg) on day 21. These always relapsed 40-70 days after treatment. Parasitemia was followed by examining tail vein blood smears once weekly. Animals which had relapsed were removed from cages. TREU 667 infections were followed >225 days after inoculation and LUMP 1001 were followed >280 days, as determined by the relapse pattern in previous work (Bacchi, C. J., H. C. Nathan, A. B. Clarkson, Jr., E. J. Bienen, A. J. Bitonti, P. P. McCann and A. Sjoerdsma. Activity of the ornithine decarboxylase inhibitors DL-α-difluoromethylornithine and monofluormethyldehydroornithine methylester alone and in combination with suramin against Trypanosoma brucei brucei central nervous system models. Am. J. Trop. Med. Hyg. (in press)). […]

Experiment [2] concerns T. b. brucei LUMP 1001. Description: CNS model, T. b. brucei LUMP 1001 infection in mice (Table 5). In kind it is in vivo, Trypanosoma brucei brucei (in Swiss-Webster mice). The settings on record: control: Berenil 40 mg/kg on day 21.
Description: as §1
The models for […] nervous system infections used TREU 667 and LUMP 1001 strains which were stored frozen and passaged once in rats before infection of mice. Maintenance and use of these screens were as described (Clarkson, A. B. Jr., C. J. Bacchi, G. H. Mellon, H. C. Nathan, P. P. McCann and A. Sjoerdsma. Efficacy of DFMO+blemoycin in a mouse model of central nervous system African trypanosomiasis. Proc. Natl. Acad. Sci. USA. 80: 5729-5733, 1983/Clarkson, A. B. Jr., E. J. Biene, C. J. Bacchi, P. P. McCann, S. H. Hutner and A. Sjoerdsma. New drug combination for experimental late stage African trypanosomiasis: DFMO with suramin. Am. J. Trop. Med. Hyg. 33: 1073-1077, 1984/Dube, D. K., G. Mpimbaza, A. C. Allison, E. Lederer and L. Rovis. Antitrypanosomal activity of sinefungin, Am. J. Trop. Med. Hyg. 32: 31-33, 1983/Fish, W. R., J. J. Marr, R. L. Berens, D. L. Looker, D. J. Nelson, S. LaFon and A. E. Balber. Inosine analogs as chemotherapeutic agents for African trypanosomes: metabolism in trypanosomes and efficacy in tissue culture. Anti-microb. Ag. Chemother. 27: 33-36, 1985/Clazer, R. I., and L. S. Lloyd. Effects of 8-azaadenosine and formycin on cell lethality and the synthesis and methylation of nucleic acids in human colon carcinoma cells in culture. Biochem. Pharmacol. 31: 3207-3214, 1982/Bacchi, C. J., H. C. Nathan, A. B. Clarkson, Jr., E. J. Bienen, A. J. Bitonti, P. P. McCann and A. Sjoerdsma. Activity of the ornithine decarboxylase inhibitors DL-α-difluoromethylornithine and monofluormethyldehydroornithine methylester alone and in combination with suramin against Trypanosoma brucei brucei central nervous system models, Am. J. Trop. Med. Hyg. (in press)). Briefly, groups of 100-120 mice were infected and the infections allowed to develop until day 21, when the animals were separated into groups of 10 and therapy commenced. Controls were treated with Berenil (40 mg/kg) on day 21. […] Parasitemia was followed by examining tail vein blood smears once weekly. Animals which had relapsed were removed from cages.

In experiment [3] the test system is T. b. brucei TREU 667. The settings on record: infection developed within 21 days; cited from earlier work.
Experiment [4] deals with T. b. brucei LUMP 1001. The settings on record: infection developed within 21 days; cited from earlier work.

Results on 1 molecule are retold here after patent US4914086A, “Method for treating African human and veterinary trypanosomiases” (priority 1987, dated 1990).

SMILES strings stand for the structures.

Take `N=C(N)c1ccc(N=NNc2ccc(C(=N)N)cc2)cc1` [Berenil, diminazene aceturate, reference compound]: the relapse after treatment in experiment [1] and in experiment [2] was 40 to 70 days each time. Also, the “response of infection in words” value in experiment [3] and in experiment [4] was “refractory” in each case.
